Entries after “also recorded” stand apart in the source; their conditions may differ.
Tests used:
[1] = relative clinical effect of ACH; cited from earlier work
[2] = Relative clinical effect of ACH (dexamethasone equivalent); settings: for Equivalent (dexamethasone equivalent): dexamethasone taken as unity
Excerpt: The relative amounts of ACH and TSH-releasing hormones may be determined according to the particular dosage form, the disease to be treated and other factors. Generally speaking, the ratio is about 1 (dexamethasone equivalent): 0.05 to 5, advantageously 0.05 to 2, and especially 0.1 to 1. The preferred ratio in each dosage form is; in the case of injections, about 1 (dexamethasone equivalent): 0.05 to 1, advantageously 0.1 to 1; in the case of oral preparations, about 1 (dexamethasone equivalent): 1 to 5, advantageously 1 to 2; and in the case of topical preparations, infusions and implants, about 1 (dexamethasone equivalent): 0.5 to 5, advantageously 0.5 to 2. The `dexamethasone equivalent` is an index number representing the relative clinical effect of any ACH with the effect of dexamethasone being taken as unity.

[3] = system: eczema (in dogs); assay: Treatment of eczema in dogs with ointment (Example 2); settings: hydrophilic ointment 0.1%, externally applied
[4] = system: chronic moist dermatitis (in dogs); settings: oral tablets; Akitaken, 25 kg
Protocol: Diagnosis: Chronic moist dermatitis
Therefore, on the next day one tablet containing 0.5 mg of dexamethasone and 1 mg of TRH tartrate was orally administered. […] As an adjunct to the medication, the dog was placed on a controlled regimen.

| SMILES | Clinical effect [1] | Equivalent (dexamethasone equivalent) [2] | clinical efficacy / potency compared with dexamethasone [2] | therapeutic result ([3]; 4 dogs with exudative eczema) | adverse response ([3]; dogs with exudative eczema) | therapeutic response [4] |
| --- | --- | --- | --- | --- | --- | --- |
| C[C@H]1C[C@@H]2[C@H]([C@@H](O)C[C@@]3(C)[C@H]2CC[C@]3(O)C(=O)CO)[C@@]2(C)C=CC(=O)C=C12 [Methylprednisolone, 6α-methylprednisolone] | 5.0 | 6 |  |  |  |  |
| C[C@]12C=CC(=O)C=C1CC[C@H]1[C@@H]3C[C@@H](O)[C@](O)(C(=O)CO)[C@@]3(C)C[C@H](O)[C@@]12F [Triamcinolone, 9α-fluoro-16α-hydroxyprednisolone] | 5.0 | 6 | one-sixth |  |  |  |
| C[C@@H]1C[C@H]2[C@@H]3CCC4=CC(=O)C=C[C@]4(C)[C@@]3(F)[C@@H](O)C[C@]2(C)[C@@]1(O)C(=O)COP(=O)(O)O [dexamethasone phosphate] |  |  |  | a passing mitigation of inflammation or itchiness; also recorded: substantially no successful therapeutic result was obtained | an increase in the amount of exudate |  |
| C[C@@H]1C[C@H]2[C@@H]3CCC4=CC(=O)C=C[C@]4(C)[C@@]3(F)[C@@H](O)C[C@]2(C)[C@@]1(O)C(=O)CO [Dexamethasone, 9α-fluoro-16α-methylprednisolone] | 30.0 | 1 |  |  |  | failed to elicit a response |
| C[C@]12CCC(=O)C=C1CC[C@@H]1[C@@H]2[C@@H](O)C[C@@]2(C)[C@H]1CC[C@]2(O)C(=O)CO [Hydrocortisone] | 1.0 | 30 |  |  |  |  |
| C[C@]12C=CC(=O)C=C1CC[C@@H]1[C@@H]2[C@@H](O)C[C@@]2(C)[C@H]1CC[C@]2(O)C(=O)CO [Prednisolone, prednisolone] | 4.0 | 7.5 |  |  |  |  |
| C[C@@H]1C[C@H]2[C@@H]3C[C@H](F)C4=CC(=O)C=C[C@]4(C)[C@H]3[C@@H](O)C[C@]2(C)[C@@]1(O)C(=O)CO [Paramethasone, 6α-fluoro-16α-methylprednisolone] | 10.0 | 3 |  |  |  |  |
| C[C@H]1C[C@H]2[C@@H]3CCC4=CC(=O)C=C[C@]4(C)[C@@]3(F)[C@@H](O)C[C@]2(C)[C@@]1(O)C(=O)CO [Betamethasone, 9α-fluoro-16α-methylprednisolone] | 30 | 1 | as potent as dexamethasone |  |  |  |

Source: patent US4112073A, “Medicinal composition comprising adrenal cortical hormone and thyroid stimulating hormone releasing hormone” (Takeda Chemical Industries, Ltd., priority 1975, dated 1978)
